Source: doi:10.1101/2021.04.29.441652v1 (biorxiv, 2021)

Biological target: human σ2 receptor (TMEM97) (Homo sapiens, UniProt Q5BJF2)
Test: biochemical
Format: Expi293 membranes
Conditions: read-out: % of control remaining

Sequence of human σ2 receptor (TMEM97) (Q5BJF2 whole entry): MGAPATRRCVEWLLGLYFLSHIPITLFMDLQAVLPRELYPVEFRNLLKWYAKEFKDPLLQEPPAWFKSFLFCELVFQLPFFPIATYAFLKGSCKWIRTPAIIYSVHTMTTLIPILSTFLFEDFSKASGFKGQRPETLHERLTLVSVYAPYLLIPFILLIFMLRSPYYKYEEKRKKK

Row | remaining activity at 1 µM [%] | SMILES
1 | 81.3 | O=C(NCC1CN(C(=O)[C@H]2CC[C@H]3CCCCN32)C1)c1cnccn1 [ZINC001000730978]
2 | 92.1 | O=C(NCC1CCN([C@H]2CCNC2=O)CC1)c1ccn(C(F)F)n1 [ZINC001001445660]
3 | 109 | Cc1cccc(F)c1C(=O)NCC1CCN(CCn2cncn2)CC1 [ZINC001002178741]
4 | 90.1 | CCN1CC[C@@H](N2CCC(NC(=O)c3cncnc3C)CC2)C1=O [ZINC001002391793]
5 | 85.7 | CCc1nnsc1C(=O)NCC1CN(C(=O)[C@H]2CCCN2C)C1 [ZINC001003018745]
6 | 72.3 | O=C(Cn1cnnn1)N1CC(CNC(=O)C23CCCN2CCC3)C1 [ZINC001003297636]
7 | 85.5 | CC[C@@H](C(N)=O)N1CCC(NC(=O)[C@H]2Cc3ccc(Cl)cc32)CC1 [ZINC001004070100]
8 | 126 | C[C@@H](NC(=O)c1cnnn1C)C1CN(C(=O)C23CCCN2CCC3)C1 [ZINC001006004942]
9 | 87.4 | O=C1NCC[C@@H]1C(=O)N[C@H]1CCN(CCn2cc(Cl)cn2)C1 [ZINC001015510639]
10 | 106 | C[C@@]1(C(=O)N[C@H]2CC23CCN(CC(=O)NC2CC2)CC3)CCNC1=O [ZINC001016825715]
11 | 120 | Cn1ccc(N2CC[C@@H](N[C@H]3CCN(C(=O)CC4CCC4)C3)C2=O)n1 [ZINC001018665695]
12 | 101 | Cc1cc(C(=O)N2CC[C@H](NCc3cccc(Cl)c3F)C2)ncn1 [ZINC001018723708]
13 | 99.6 | O=C([C@H]1Cc2ccccc21)N1CC[C@H](NCc2ccncc2Cl)C1 [ZINC001019309159]
14 | 85 | Cc1ccc(C(=O)NC[C@H]2CN(C(=O)[C@@H]3CCN(C)C3)CCCO2)o1 [ZINC001019525589]
15 | 102 | Cc1nc(CN[C@H]2C[C@H](NC(=O)Cn3ncn(C)c3=O)C2)cs1 [ZINC001020327691]
16 | 86.2 | Cc1ccccc1CN[C@H]1C[C@H](NC(=O)c2cn(C)c(=O)nc2O)C1 [ZINC001021041334]
17 | 106 | Cn1cc(CN[C@H]2C[C@H](NC(=O)c3cccc(C(N)=O)n3)C2)cn1 [ZINC001021109191]
18 | 89.3 | C[C@@H](C(N)=O)N1CCC[C@H](CNC(=O)c2nn(C)c3c2CCCC3)C1 [ZINC001023604137]
19 | 95.7 | Cn1nccc1C(=O)N1C[C@@H](O)[C@H](NC(=O)c2c[nH]nc2C2CC2)C1 [ZINC001025444165]
20 | 109 | Cc1cc(C(=O)NC[C@@H]2CCN(CC(=O)Nc3cnccn3)C2)on1 [ZINC001028403773]
21 | 115 | Cc1nc(O)[nH]c1C(=O)NC[C@H]1CCN([C@H](C)C(=O)NC2CC2)C1 [ZINC001028614115]
22 | 92.8 | Cc1ccnc2nc(C(=O)NCC3CN(CCCC4CCC4)C3)nn12 [ZINC001032169623]
23 | 24.6 | CCN(C(=O)c1cnccn1)[C@@H]1CCN(CC2CCCCCC2)C1 [ZINC001033739722]
24 | 43.3 | CCN(C(=O)c1ccnc(C2CC2)n1)[C@H]1CCN(CC2CCC2)C1 [ZINC001033973784]

Row | remaining activity at 1 µM [%] | SMILES
25 | 119 | CCc1ocnc1C(=O)NC[C@H]1CN(C[C@@H](C)CC)CCO1 [ZINC001035320653]
26 | 115 | C[C@@H](O)CN1CC[C@H](C2CCN(C(=O)CN3CCOCC3)CC2)C1 [ZINC001039123057]
27 | 100 | COc1ccnc(CN2CCC3(CC2)CCN(C(=O)C(C)C)C3)c1 [ZINC001040612984]
28 | 117 | COCCC(=O)N1CC[C@@](O)(CNC(=O)[C@@H]2CCN(C)C2=O)C1 [ZINC001040614201]
29 | 98.6 | O=C(NCC1(O)CN(C(=O)CCn2ccnc2)C1)[C@H]1CC=CCC1 [ZINC001041431730]
30 | 110 | O=C([C@@H]1CCCN(CC(F)F)C1)N1CC[C@]2(CCN(CCO)C2)C1 [ZINC001041605786]
31 | 103 | CN1CC[C@@H](C(=O)N2CC[C@@]3(CCN(Cc4nnn(C)n4)C3)C2)C1 [ZINC001041828396]
32 | 102 | CN1CCC[C@H]1C(=O)NCC1(O)CN(C(=O)CCc2ncccn2)C1 [ZINC001042098162]
33 | 125 | Cn1nc(C(=O)N2CC(O)(CNC(=O)C3=CCOCC3)C2)ccc1=O [ZINC001042722400]
34 | 84.5 | CNC(=O)NCC(=O)N1CC(O)(CNC(=O)c2ccc(F)s2)C1 [ZINC001043696212]
35 | 116 | CN1CCCC[C@@H]1C(=O)NCC1(O)CN(C(=O)CCc2cn[nH]c2)C1 [ZINC001043772717]
36 | 88.5 | CN(C)c1ccc(C(=O)N2CC(O)(CNC(=O)c3cnn[nH]3)C2)nc1 [ZINC001043817104]
37 | 114 | CCC[C@@H]1C[C@H]1C(=O)NCC1(O)CN(C(=O)C2CN(C(C)=O)C2)C1 [ZINC001046261579]
38 | 101 | Cc1nc[nH]c1C(=O)N1CC(O)(CNC(=O)CN2CC[C@H](C)C2)C1 [ZINC001046685471]
39 | 104 | C[C@H](C(=O)NCC1(O)CN(C(=O)Cn2ncnn2)C1)C1CCCC1 [ZINC001046914841]
40 | 110 | NC(=O)[C@@H]1CCC[C@@H](C(=O)NCC2(O)CN(C(=O)C3CCC3)C2)C1 [ZINC001046939982]
41 | 107 | CC(C)n1cc(C(=O)N2CC(O)(CNC(=O)c3ccnnc3)C2)nn1 [ZINC001047126822]
42 | 61.7 | Cc1ccc(CN2C[C@@H]3CN(C(=O)c4cccn4C)C[C@@H]3C2)cc1C [ZINC001048683995]
43 | 105 | Cc1ncc(CNC[C@@H]2CN(C(=O)c3cn(C)cn3)CCO2)cn1 [ZINC001051553588]
44 | 132 | O=C(Cn1cnnn1)N[C@H]1CCN(c2ncnc3c2CCC3)C[C@H]1O [ZINC001051633080]
45 | 104 | CCN1CC[C@H](N2CCC[C@@H](NC(=O)c3ccc(O)nn3)CC2)C1=O [ZINC001052175095]
46 | 104 | COCCn1cc(C(=O)N2C[C@@H](C)[C@@H](NCc3ccccn3)C2)nn1 [ZINC001054647418]
47 | 103 | Cc1cnc(C(=O)N2C[C@H]3CN(C(=O)CN(C)C(C)C)C[C@H]3C2)cn1 [ZINC001055138151]
48 | 98.5 | CC(=O)NCCN1CCC(NC(=O)c2c(Cl)n[nH]c2C)CC1 [ZINC001055479120]

Row | remaining activity at 1 µM [%] | SMILES
49 | 95.3 | O=C(N[C@H]1CCN(c2cc(Cl)c(O)nn2)C1)c1c[nH]c(=O)cn1 [ZINC001058532763]
50 | 93.6 | Cn1nnc2c(N3C[C@H]4CC[C@@H](C3)N4C(=O)c3cc[nH]n3)ncnc21 [ZINC001058732454]
51 | 76 | O=C(NCC[C@@H]1CCN(C(=O)c2ccncn2)C1)c1c[nH]c(=O)cn1 [ZINC001060201073]
52 | 62.6 | CN1CCC[C@@H]1C(=O)NC[C@H]1CCCN1c1ncnc2scnc12 [ZINC001061317651]
53 | 91.3 | CN1CCC(C(=O)NC[C@@H]2CCN(c3ncc(Cl)cn3)C2)CC1 [ZINC001061620290]
54 | 146 | CN(C)C(=O)c1cncc(N[C@H]2CC[C@H](NC(=O)C(N)=O)CC2)n1 [ZINC001063398490]
55 | 57.8 | Cn1cc(C(=O)N2CCO[C@@H](CNC(=O)C=C3CCC3)C2)ncc1=O [ZINC001065434920]
56 | 104 | O=C(c1cccnn1)N1CCC(O)(CNc2cncc(Cl)n2)CC1 [ZINC001067478391]
57 | 89.9 | C[C@@H]1CN(C(=O)Cc2cncnc2)C[C@H]1NC(=O)CCn1cccn1 [ZINC001071984909]
58 | 81.8 | CNC(=O)[C@@H](C)N1CCC2(CN(C(=O)c3c[nH]c4nccc-4c3)C2)C1 [ZINC001072835483]
59 | 110 | CCc1cc(C(=O)NC[C@H]2CN(CCn3cncn3)CCCO2)no1 [ZINC001073859800]
60 | 113 | CN1CC[C@@H](C(=O)NC[C@H]2CN(Cc3csnn3)CCCO2)C1 [ZINC001073886256]
61 | 89.6 | O=C(C[C@H]1C=CCC1)NCC1(O)CCN(C(=O)c2cncnc2)CC1 [ZINC001074556982]
62 | 109 | NC(=O)C(=O)N1CCC(O)(CNC(=O)[C@H]2CCCCC2(F)F)CC1 [ZINC001074702922]
63 | 16.5 | Cc1c(F)cccc1C(=O)N[C@@H]1CN(CCC2CCCCC2)C[C@H]1O [ZINC001077034834]
64 | 111 | C[C@@H](CCNC(=O)C1(CN(C)C)CC1)NC(=O)c1ncccc1O [ZINC001078073018]
65 | 99.4 | CC[C@@H]1[C@@H](NC(=O)Cc2ccc(C)cc2)CCN1C[C@@H]1CCOC1 [ZINC001087646081]
66 | 132 | Cc1ccoc1CC(=O)N1C[C@H]2CCN(CC(=O)N(C)C)C[C@H]2C1 [ZINC001088099598]
67 | 28.5 | O=C(N[C@@H]1CCN(CCC2CCCC2)C[C@@H]1O)C1(C(F)F)CCC1 [ZINC001099969021]
68 | 76.1 | Cc1cc(C)nc(NC[C@@H](O)CNC(=O)[C@@H]2CCc3c[nH]nc3C2)n1 [ZINC001105862991]
69 | 90.2 | O=C1CN(CC(=O)N[C@H](CNc2cc(F)ncn2)C2CC2)CCN1 [ZINC001109958062]
70 | 95.8 | CO[C@@H](CNC(=O)C(=O)N1C[C@@H]2C(=O)N(C)C(=O)[C@@H]2C1)CC(C)C [ZINC001119173847]
71 | 107 | O=C(NCCN1CCNC1=O)C(=O)NC[C@H]1CCc2ccccc21 [ZINC001119470858]
72 | 88 | CN(C[C@@H](O)CN(C)c1ncc(F)cn1)C(=O)CCc1cnn[nH]1 [ZINC001125309519]

Row | SMILES | remaining activity at 1 µM [%]
73 | Cc1ccc(CN2[C@@H]3CC[C@H]2[C@@H](NC(=O)c2cn(C)cn2)C3)c(C)c1 [ZINC001095312060] | 69.4
74 | C[C@H](C(=O)N[C@H]1C[C@H]2CC[C@@H]1N2CCn1cccn1)c1ccccc1F [ZINC001096194954] | 118
75 | C[C@H](C(=O)N[C@H]1C[C@H]2CC[C@@H]1N2CCOCC1CC1)c1cccs1 [ZINC001109713565] | 28.7
76 | CN(C)S(=O)(=O)CCC(=O)N[C@H]1[C@@H]2CN(Cc3ccon3)C[C@@H]21 [ZINC001115282185] | 109
